“Also recorded” adds a separate entry of the source.
How the values were obtained:
RARβ [1] = biological target: T1, RARβ (Homo sapiens, UniProt P10826); assay: RAR transactivation assay (ER-RAR fusion, ERE-tk-Luc reporter, CV-1 cells); type: cell-based; settings: 20 hours, luciferase activity
T1 construct: expressed in transfected cells; host or cells: CV-1
From the text: (§1) Data are mean values ± SE from five independent experiments.
T1 sequence (P10826 183-417 limits assumed, species assumed): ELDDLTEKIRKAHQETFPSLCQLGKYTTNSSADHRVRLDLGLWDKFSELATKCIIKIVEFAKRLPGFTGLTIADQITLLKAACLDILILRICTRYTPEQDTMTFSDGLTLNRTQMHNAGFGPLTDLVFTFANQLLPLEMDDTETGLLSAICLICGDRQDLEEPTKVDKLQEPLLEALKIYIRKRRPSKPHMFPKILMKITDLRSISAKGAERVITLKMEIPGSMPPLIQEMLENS

RARγ [2] = biological target: T2, RARγ (Homo sapiens, UniProt P13631); assay: as above; type: cell-based; settings: 20 hours, luciferase activity
T2 construct: expressed in transfected cells; host or cells: CV-1
From the text: as §1
T2 sequence (P13631 185-419 limits assumed, species assumed): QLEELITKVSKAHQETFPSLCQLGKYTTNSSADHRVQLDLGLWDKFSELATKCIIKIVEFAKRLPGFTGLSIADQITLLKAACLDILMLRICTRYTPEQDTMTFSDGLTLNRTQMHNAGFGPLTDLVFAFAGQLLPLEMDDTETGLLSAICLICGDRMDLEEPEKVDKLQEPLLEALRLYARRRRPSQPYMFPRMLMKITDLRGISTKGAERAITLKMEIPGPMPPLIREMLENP

RXRα = biological target: T3, RXRα (Homo sapiens, UniProt P19793); assay: Competitive displacement of [3H]-9CRA from purified receptor; settings: 10 nM [3H]-9CRA; read-out: RXR Binding Affinity Ki (nM) RXRα
T3 construct: an expression construct including a full length RXRα, RXRβ, or RXRy; expressed in transfected cells; host or cells: CV-1
T3 sequence (P19793 1-462): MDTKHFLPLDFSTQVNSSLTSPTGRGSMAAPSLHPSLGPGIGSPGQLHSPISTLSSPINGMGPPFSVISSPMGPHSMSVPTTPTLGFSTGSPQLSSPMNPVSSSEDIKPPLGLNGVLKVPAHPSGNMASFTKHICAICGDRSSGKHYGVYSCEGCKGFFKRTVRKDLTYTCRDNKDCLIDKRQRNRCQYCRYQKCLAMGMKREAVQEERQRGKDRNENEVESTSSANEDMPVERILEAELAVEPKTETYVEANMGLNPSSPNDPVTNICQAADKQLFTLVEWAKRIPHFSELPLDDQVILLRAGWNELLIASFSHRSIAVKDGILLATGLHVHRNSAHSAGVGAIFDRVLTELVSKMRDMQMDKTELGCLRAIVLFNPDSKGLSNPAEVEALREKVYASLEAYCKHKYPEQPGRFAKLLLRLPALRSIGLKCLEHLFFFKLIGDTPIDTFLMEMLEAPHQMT
From the text: (§2) Standard errors (±) among independent experiments are indicated.

RXRγ = biological target: T4, RXRγ (Homo sapiens, UniProt P48443); assay: as above; settings: 10 nM [3H]-9CRA; read-out: RXR Binding Affinity Ki (nM) RXRγ
T4 construct: an expression construct including a full length RXRα, RXRβ, or RXRy; expressed in transfected cells; host or cells: CV-1
T4 sequence (P48443 1-463): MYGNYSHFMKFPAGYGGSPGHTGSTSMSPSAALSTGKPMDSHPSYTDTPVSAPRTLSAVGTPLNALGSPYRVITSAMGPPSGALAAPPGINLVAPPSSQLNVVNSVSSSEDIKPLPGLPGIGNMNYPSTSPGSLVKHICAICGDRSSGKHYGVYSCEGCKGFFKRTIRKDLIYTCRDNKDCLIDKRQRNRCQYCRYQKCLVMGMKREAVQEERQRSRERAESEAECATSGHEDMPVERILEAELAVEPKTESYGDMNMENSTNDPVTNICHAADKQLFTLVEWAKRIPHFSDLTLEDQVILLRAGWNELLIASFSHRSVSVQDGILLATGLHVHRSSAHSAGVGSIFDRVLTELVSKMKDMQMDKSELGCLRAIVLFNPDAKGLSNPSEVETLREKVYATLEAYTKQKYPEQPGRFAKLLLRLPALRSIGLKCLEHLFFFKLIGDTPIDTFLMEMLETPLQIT
From the text: as §2

RARα = biological target: T5, RARα (Homo sapiens, UniProt P10276); assay: Competitive displacement of [3H]-ATRA from purified receptor; settings: 5 nM [3H]-ATRA; read-out: RAR Binding Affinity Ki (nM) RARα
T5 construct: made in house; host or cells: SF21 insect cells (baculovirus)
T5 sequence (P10276 whole entry, species assumed): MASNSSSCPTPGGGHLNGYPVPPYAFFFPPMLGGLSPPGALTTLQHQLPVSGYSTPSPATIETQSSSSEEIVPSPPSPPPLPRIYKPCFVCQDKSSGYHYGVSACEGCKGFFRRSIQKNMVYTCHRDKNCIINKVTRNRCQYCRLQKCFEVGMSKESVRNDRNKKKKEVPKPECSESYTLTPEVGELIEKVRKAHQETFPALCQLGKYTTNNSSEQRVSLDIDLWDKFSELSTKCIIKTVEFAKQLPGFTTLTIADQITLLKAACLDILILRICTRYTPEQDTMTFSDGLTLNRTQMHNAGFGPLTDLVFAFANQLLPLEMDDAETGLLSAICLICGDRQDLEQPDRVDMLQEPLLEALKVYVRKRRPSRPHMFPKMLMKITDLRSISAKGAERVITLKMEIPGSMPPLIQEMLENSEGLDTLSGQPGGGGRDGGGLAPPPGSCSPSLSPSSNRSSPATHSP
From the text: as §2

RARβ [3] = biological target: T6, RARβ (Homo sapiens, UniProt P10826); assay: as above; settings: 5 nM [3H]-ATRA; read-out: RAR Binding Affinity Ki (nM) RARβ
T6 construct: made in house; host or cells: SF21 insect cells (baculovirus)
From the text: as §2
T6 sequence (P10826 whole entry, species assumed, the tested form may be a part): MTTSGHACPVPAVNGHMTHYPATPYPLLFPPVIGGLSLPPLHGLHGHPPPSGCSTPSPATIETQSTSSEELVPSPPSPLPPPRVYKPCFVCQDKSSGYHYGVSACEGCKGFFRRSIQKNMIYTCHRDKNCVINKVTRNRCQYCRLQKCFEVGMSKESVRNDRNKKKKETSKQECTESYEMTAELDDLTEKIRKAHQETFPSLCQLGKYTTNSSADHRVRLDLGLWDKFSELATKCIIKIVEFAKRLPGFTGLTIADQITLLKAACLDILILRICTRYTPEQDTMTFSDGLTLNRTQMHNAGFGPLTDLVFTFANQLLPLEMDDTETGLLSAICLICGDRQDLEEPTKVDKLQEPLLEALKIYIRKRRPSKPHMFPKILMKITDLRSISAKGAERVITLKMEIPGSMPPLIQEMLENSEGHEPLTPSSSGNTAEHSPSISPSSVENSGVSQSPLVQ

RARγ [4] = biological target: RARγ (Homo sapiens, UniProt P13631); assay: as above; settings: 5 nM [3H]-ATRA; read-out: RAR Binding Affinity Ki (nM) RARγ
From the text: as §2
Target sequence in this assay (P13631 whole entry, species assumed): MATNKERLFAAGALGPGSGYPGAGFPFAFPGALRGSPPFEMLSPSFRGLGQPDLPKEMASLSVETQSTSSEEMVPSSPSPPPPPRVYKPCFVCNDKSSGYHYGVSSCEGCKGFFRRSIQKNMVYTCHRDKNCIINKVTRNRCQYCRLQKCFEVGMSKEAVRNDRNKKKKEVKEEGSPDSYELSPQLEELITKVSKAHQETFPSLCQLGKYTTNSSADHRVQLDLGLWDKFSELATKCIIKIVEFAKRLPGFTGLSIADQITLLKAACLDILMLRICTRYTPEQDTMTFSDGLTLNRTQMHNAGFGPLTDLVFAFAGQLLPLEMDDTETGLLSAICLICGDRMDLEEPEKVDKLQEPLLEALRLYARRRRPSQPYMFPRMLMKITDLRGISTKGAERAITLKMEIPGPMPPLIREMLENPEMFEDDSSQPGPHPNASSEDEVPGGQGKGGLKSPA

PPARy/RXR = assay: Permissive heterodimer transactivation assay, CV-1 cells, 3x(rAOX/DR1)-tk-Luc; type: cell-based; settings: 20 hr, luciferase vs rosiglitazone
From the text: (§3) For PPARy: CV-1 cells were transfected with 3x(rAOX/DR1)-tk-Luc reporter gene and an expression vector for PPARy. For FXR:CV-1 cells were transfected with 3x(IBABP/IRI)-tk-Luc reporter gene and vectors for FXR and RXRα. For LXR:CV-1 cells were transfected with 3x(PLTP/LXRE)-tk-Luc reporter gene with vectors for LXRα or LXRβ. For Nurr1: COS7 cells were transfected with 3xNBRE-tk-luc reporter gene and full length Nurr-1 with or without full-length RXRα plasmid. […] Luciferase data were normalized to co-transfected β-gal activity. Luciferase activity was expressed as percent of maximal activity obtained using specific agonists. Rosiglitazone (PPARy), GW4064 (FXR), T0901317 (LXR).

FXR/RXR = biological target: T7, FXR/RXR (Homo sapiens, UniProt P19793); assay: Permissive heterodimer transactivation assay, CV-1 cells, 3x(IBABP/IRI)-tk-Luc; type: cell-based; settings: 20 hr, luciferase vs GW4064
T7 construct: expressed in transfected cells; host or cells: CV-1
T7 sequence (Q96RI1 whole entry partner, one chain of several): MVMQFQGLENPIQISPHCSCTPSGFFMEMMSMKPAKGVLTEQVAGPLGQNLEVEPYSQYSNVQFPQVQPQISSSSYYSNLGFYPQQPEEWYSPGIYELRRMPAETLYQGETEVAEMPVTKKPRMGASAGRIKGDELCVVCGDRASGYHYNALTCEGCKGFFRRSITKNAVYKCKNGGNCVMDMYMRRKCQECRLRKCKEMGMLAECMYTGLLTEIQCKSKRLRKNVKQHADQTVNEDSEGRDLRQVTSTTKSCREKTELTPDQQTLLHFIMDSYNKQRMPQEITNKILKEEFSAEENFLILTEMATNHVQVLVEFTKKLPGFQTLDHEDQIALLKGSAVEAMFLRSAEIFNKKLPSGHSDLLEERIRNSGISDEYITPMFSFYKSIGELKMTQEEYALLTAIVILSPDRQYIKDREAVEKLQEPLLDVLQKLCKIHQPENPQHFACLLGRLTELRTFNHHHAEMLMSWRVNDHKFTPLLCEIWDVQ
From the text: as §3

Nurr1/RXR heterodimer = biological target: T8, Nurr1/RXR heterodimer (Homo sapiens, UniProt P19793); assay: Nurr1/RXR transactivation assay, COS7 cells, 3xNBRE-tk-luc; type: cell-based; settings: for activation of the Nurr1/RXR heterodimer: COS7 cells, 20 hr
T8 construct: full length Nurr-1 with or without full-length RXRα plasmid; expressed in transfected cells; host or cells: COS7
T8 sequence (P43354 whole entry partner, one chain of several): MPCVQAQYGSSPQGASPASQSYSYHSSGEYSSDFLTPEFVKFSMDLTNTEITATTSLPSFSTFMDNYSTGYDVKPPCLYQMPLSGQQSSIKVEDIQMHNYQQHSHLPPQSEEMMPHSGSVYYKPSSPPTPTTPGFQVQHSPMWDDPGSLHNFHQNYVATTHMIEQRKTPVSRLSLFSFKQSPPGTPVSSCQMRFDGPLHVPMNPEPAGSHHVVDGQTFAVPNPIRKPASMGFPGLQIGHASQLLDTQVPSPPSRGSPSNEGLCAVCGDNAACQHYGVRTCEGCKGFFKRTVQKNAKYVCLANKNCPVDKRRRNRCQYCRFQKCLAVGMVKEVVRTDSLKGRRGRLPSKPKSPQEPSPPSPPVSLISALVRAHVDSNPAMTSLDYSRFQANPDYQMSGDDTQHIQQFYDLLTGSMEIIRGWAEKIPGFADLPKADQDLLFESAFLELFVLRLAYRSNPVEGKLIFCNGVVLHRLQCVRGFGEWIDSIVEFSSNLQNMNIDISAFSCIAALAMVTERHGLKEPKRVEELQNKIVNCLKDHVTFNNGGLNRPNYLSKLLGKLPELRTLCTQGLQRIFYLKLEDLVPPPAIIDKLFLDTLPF
From the text: as §3

[5] = test system: demyelinated caudal cerebellar peduncles of one year old rats; assay: Focal toxin (ethidium bromide) induced rat model of demyelination; type: in vivo
Experimental: The experiment uses rats of relatively advanced age (1 year) since such rats undergo remyelination in a less efficient manner, thereby providing data that are more relevant to the clinical treatment of human patients with multiple sclerosis or other demyelination disorders.
Focal demyelination is induced in one year old rats (approximately 300 g in weight) by injecting stereotactically 5 µl of ethidium bromide solution (0.01% vol/vol in saline) in a bilateral manner into the caudal cerebellar peduncles (CCP). […] The rats are killed on day 24 post-ethidium bromide treatment for analysis of remyelination by quantitative polymerase chain reaction (qPCR) and microscopy.

breast cancer cells = assay: Proliferation of breast cancer cells in vitro; type: cell-based
[6] = Cmax after oral doses of IRX4204; settings: in vivo, 24 mg/m2; oral doses of 24 mg/m^2/day
[7] = test system: oligodendrocyte differentiation and remyelination; assay: In vitro measures of oligodendrocyte differentiation and remyelination; type: cell-based
[8] = 10 mg/kg/day oral gavage, day 7 to day 21

CCOC(=O)/C=C(C)/C=C/[C@@H]1C[C@]1(C)c1ccc2c(c1)C(C)(C)CCC2(C)C [IRX4204EE, 3,7-dimethyl-6(S),7(S)-methano,7-[1,1,4,4-tetramethyl-1,2,3,4-tetrahydronaphth-7-yl]2(E),4(E) heptadienoic ethyl ester]
EC50 (RARβ [1]): > 1000 nM | EC50 (RARγ [2]): > 1000 nM | Ki (RXRα): > 1000 nM | Ki (RXRγ): > 1000 nM | Ki (RARα): > 1000 nM | Ki (RARβ [3]): > 1000 nM | Ki (RARγ [4]): > 1000 nM | activation of PPARy/RXR heterodimer (PPARy/RXR): very little activity | activation of FXR/RXR heterodimer (FXR/RXR): very little activity | activation of the Nurr1/RXR heterodimer (Nurr1/RXR heterodimer): very little activity | activity in focal toxin rat model relative to IRX4204 (same end-points) ([5]; rat, in vivo): somewhat more active than the free acid

CC(/C=C/[C@@H]1C[C@]1(C)c1ccc2c(c1)C(C)(C)CCC2(C)C)=C\C(=O)O [IRX4204, 3,7-dimethyl-6(S),7(S)-methano,7-[1,1,4,4-tetramethyl-1,2,3,4-tetrahydronaphth-7-yl]2(E),4(E) heptadienoic acid]
activation of FXR/RXR heterodimer (FXR/RXR): not to transactivate; also recorded: does not activate | concentration at which transactivation of the Nurr1/RXR heterodimer is apparent (Nurr1/RXR heterodimer): 100 pM | concentration sufficient to achieve full activation of Nurr1/RXR (Nurr1/RXR heterodimer): 1 nM | activation of the Nurr1/RXR heterodimer (Nurr1/RXR heterodimer): selectively activates | Mbp expression (real-time qPCR of lesion samples) [5, 8]: increase in Mbp expression | Nkx2.2+ oligodendrocyte precursor cells (OPCs) in lesions [5, 8]: increased | Pdgfra expression (real-time qPCR of lesion samples) [5, 8]: increase in Pdgfra expression | density of CC1+ differentiated oligodendrocytes in lesions [5, 8]: increased | density of Olig2+ oligodendrocyte lineage cells in lesions [5, 8]: increased | remyelinated axons (ultrastructural analysis of CCP lesions) [5, 8]: more remyelinated axons | inhibition of proliferation of breast cancer cells (breast cancer cells; 10 nM): observably inhibit the proliferation | inhibition of proliferation of breast cancer cells (breast cancer cells; 100 nM): substantial improvement in effectiveness | Cmax [6]: 219 nM | concentration with marginal activity detected [7]: 1 pM

— patent US20230129034A1, “TREATMENT OF DISEASE WITH ESTERS OF SELECTIVE RXR AGONISTS” (Io Therapeutics, Inc., priority 2017, published 2023)
